Measurements reported in ChEMBL document CHEMBL2074430, “Transient expression of oatp organic anion transporter in mammalian cells: identification of candidate substrates” (Am J Physiol, 1996).
Each block holds one molecule with its values, some of them ahead of it.

Tests used:
Assay type in all cases: functional, cell-based
Details in all cases: human
[1] = molecular target: T1, Solute carrier organic anion transporter family member 1A1 (Rattus norvegicus, UniProt P46720); assay: TP_TRANSPORTER: inhibition of BSP uptake (BSP: 1 uM, Aldosterone: 100 uM) in Oatp1-expressing HeLa cells
T1 sequence (P46720 whole entry): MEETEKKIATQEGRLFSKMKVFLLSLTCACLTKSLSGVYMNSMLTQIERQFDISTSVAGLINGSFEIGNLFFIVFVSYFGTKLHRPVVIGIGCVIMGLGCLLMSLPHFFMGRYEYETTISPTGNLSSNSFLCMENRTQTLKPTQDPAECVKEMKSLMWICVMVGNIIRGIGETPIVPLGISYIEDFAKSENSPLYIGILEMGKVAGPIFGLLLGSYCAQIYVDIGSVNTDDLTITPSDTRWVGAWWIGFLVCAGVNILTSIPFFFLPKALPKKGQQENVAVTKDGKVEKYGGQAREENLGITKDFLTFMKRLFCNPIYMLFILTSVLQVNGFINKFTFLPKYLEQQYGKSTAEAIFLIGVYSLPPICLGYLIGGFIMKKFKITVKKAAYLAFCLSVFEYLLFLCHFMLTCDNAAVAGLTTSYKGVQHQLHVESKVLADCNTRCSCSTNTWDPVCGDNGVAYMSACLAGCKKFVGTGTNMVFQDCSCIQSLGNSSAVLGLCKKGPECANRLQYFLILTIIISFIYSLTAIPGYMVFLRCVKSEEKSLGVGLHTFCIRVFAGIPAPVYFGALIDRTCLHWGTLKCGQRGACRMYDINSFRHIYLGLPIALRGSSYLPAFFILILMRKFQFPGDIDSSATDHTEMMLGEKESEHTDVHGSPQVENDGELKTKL

[2] = molecular target: T1, Solute carrier organic anion transporter family member 1A1; assay: TP_TRANSPORTER: uptake in Oatp1-expressing HeLa cells
[3] = molecular target: T1, Solute carrier organic anion transporter family member 1A1; assay: TP_TRANSPORTER: inhibition of BSP uptake (BSP: 1 uM, Corticosterone: 100 uM) in Oatp1-expressing HeLa cells
[4] = molecular target: T1, Solute carrier organic anion transporter family member 1A1; assay: TP_TRANSPORTER: inhibition of BSP uptake (BSP: 1 uM, Hydrocortisone: 100 uM) in Oatp1-expressing HeLa cells
[5] = molecular target: T1, Solute carrier organic anion transporter family member 1A1; assay: TP_TRANSPORTER: inhibition of BSP uptake (BSP: 1 uM, Spironolactone: 100 uM) in Oatp1-expressing HeLa cells

Structure (SMILES): C[C@]12CCC(=O)C=C1CC[C@@H]1[C@@H]2[C@@H](O)C[C@]2(C=O)[C@@H](C(=O)CO)CC[C@@H]12 [ALDOSTERONE]
Activity [1]: inhibitor [(at a rough estimate) 20 % of control]

Activity [2]: is not a substrate [-]
Structure (SMILES): Nc1ccc(C(=O)NCC(=O)O)cc1 [AMINOHIPPURIC ACID]

Structure (SMILES): C[C@]12C[C@H](O)[C@H]3[C@@H](CCC4=CC(=O)CC[C@@]43C)[C@@H]1CC[C@@H]2C(=O)CO [CORTICOSTERONE]
Activity [3]: inhibitor [(at a rough estimate) 15 % of control]

Activity [2]: is not a substrate [-]
Structure (SMILES): CCCCC[C@H](O)/C=C/[C@H]1[C@H](O)CC(=O)[C@@H]1C/C=C\CCCC(=O)O [DINOPROSTONE]

Structure (SMILES): C[C@]12CCC(=O)C=C1CC[C@@H]1[C@@H]2[C@@H](O)C[C@@]2(C)[C@H]1CC[C@]2(O)C(=O)CO [HYDROCORTISONE]
Activity [4]: inhibitor [(at a rough estimate) 30 % of control]

Structure (SMILES): CC(=O)S[C@@H]1CC2=CC(=O)CC[C@]2(C)[C@H]2CC[C@@]3(C)[C@@H](CC[C@@]34CCC(=O)O4)[C@H]12 [SPIRONOLACTONE]
Activity [5]: inhibitor [(at a rough estimate) 10 % of control]
